ChEMBL document CHEMBL1201862, “PubChem BioAssay data set” (2004)
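A five-concentration, 48-hour dose response in 96-well plates underlies each endpoint, interpolated linearly between surrounding concentrations. Here, GI50 denotes the concentration required for 50% inhibition of growth.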 Activity calls are given as the source filed them. Cut-off read from the data, not from the text of the source: active = GI50 up to about 1.1 µM and inactive = higher.

Experiments:
Assay in all cases: growth of human tumour cells (NCI), 48 h
HT-29 = tested on: HT-29
SNB-75 = tested on: SNB-75
NCI-H522 = tested on: NCI-H522
M14 = tested on: M14
SF-295 = tested on: SF-295
OVCAR-5 = tested on: OVCAR-5
786-0 = tested on: 786-0
RPMI-8226 = tested on: RPMI-8226
ACHN = tested on: ACHN
SF-268 = tested on: SF-268
HOP-92 = tested on: HOP-92
UACC-62 = tested on: UACC-62
OVCAR-4 = tested on: OVCAR-4
EKVX = tested on: EKVX
BT-549 = tested on: BT-549
SR = tested on: SR

SMILES	GI50 (HT-29)	GI50 (SNB-75)	GI50 (NCI-H522)	GI50 (M14)	GI50 (SF-295)	GI50 (OVCAR-5)	GI50 (786-0)	GI50 (RPMI-8226)	GI50 (ACHN)	GI50 (SF-268)	GI50 (HOP-92)	GI50 (UACC-62)	GI50 (OVCAR-4)	GI50 (EKVX)	GI50 (BT-549)	GI50 (SR)
Nc1nc(Br)nc2ncn(C3CC(O)C(CO)O3)c12 (stereo not given)	52.7 µM (inactive)	> 100 µM (inactive)	> 100 µM (inactive)	3.05 µM (inactive)	> 100 µM (inactive)	> 100 µM (inactive)	77.3 µM (inactive)	> 90.2 µM (inactive)	10.7 µM (inactive)	> 100 µM (inactive)	2.42 µM (inactive)	11.9 µM (inactive)	> 100 µM (inactive)	> 100 µM (inactive)	46 µM (inactive)	
C=C1CC2(CCCC3(CC(=C)C(=O)O3)C2(C)C)OC1=O (stereo not given)	3.82 µM (inactive)	16.7 µM (inactive)	1.46 µM (inactive)	2.56 µM (inactive)	16.5 µM (inactive)	1.58 µM (inactive)	1.81 µM (inactive)	0.47 µM (active)	1.07 µM (active)	19.2 µM (inactive)	5.85 µM (inactive)	2 µM (inactive)	4.85 µM (inactive)	4.02 µM (inactive)	3.75 µM (inactive)	
FC(F)(F)c1nc2cc(SSc3cc4nc(C(F)(F)F)[nH]c4cc3Cl)c(Cl)cc2[nH]1	> 100 µM (inactive)		66.4 µM (inactive)	> 100 µM (inactive)	> 100 µM (inactive)	> 100 µM (inactive)	> 100 µM (inactive)	> 100 µM (inactive)	> 100 µM (inactive)	> 100 µM (inactive)		> 100 µM (inactive)	92.5 µM (inactive)	> 100 µM (inactive)	> 100 µM (inactive)	
COc1ccc(/C=C2\NC(=S)N(CN3CCCCC3)C2=O)cc1	18.3 µM (inactive)	21 µM (inactive)	30.7 µM (inactive)	50.7 µM (inactive)	69.7 µM (inactive)	> 100 µM (inactive)	36.6 µM (inactive)	27.1 µM (inactive)	33.9 µM (inactive)	18.2 µM (inactive)	76 µM (inactive)	44.7 µM (inactive)	20 µM (inactive)	34.4 µM (inactive)		38.1 µM (inactive)
O=S(=O)(O)c1cc(/N=N/c2c(O)ccc3ccccc23)ccc1/C=C/c1ccc(/N=N/c2c(O)ccc3ccccc23)cc1S(=O)(=O)O	> 100 µM (inactive)	> 100 µM (inactive)	> 100 µM (inactive)	99.5 µM (inactive)	> 100 µM (inactive)	> 100 µM (inactive)	> 100 µM (inactive)	> 100 µM (inactive)	> 100 µM (inactive)	> 100 µM (inactive)	> 100 µM (inactive)	> 100 µM (inactive)	> 100 µM (inactive)	> 100 µM (inactive)	> 100 µM (inactive)	
Oc1cc(-c2ccc(Cl)cc2)cn2c1nc1ccccc12	> 100 µM (inactive)	16.1 µM (inactive)	2.09 µM (inactive)	> 100 µM (inactive)	> 100 µM (inactive)		25.8 µM (inactive)			> 100 µM (inactive)	> 100 µM (inactive)	29.4 µM (inactive)	> 100 µM (inactive)	> 100 µM (inactive)		
O=c1[nH]c(=O)n(C2OC(CO)C(O)C2O)cc1OCCc1ccccc1 (stereo not given)	> 100 µM (inactive)		> 100 µM (inactive)	> 100 µM (inactive)	> 100 µM (inactive)	> 100 µM (inactive)	> 100 µM (inactive)		> 100 µM (inactive)	> 100 µM (inactive)	> 100 µM (inactive)	> 100 µM (inactive)	> 100 µM (inactive)	> 100 µM (inactive)		> 100 µM (inactive)
CN(C)C(=S)C(Cl)(c1ccccc1)c1ccccc1	22.6 µM (inactive)	15.8 µM (inactive)	33.3 µM (inactive)	> 100 µM (inactive)	> 100 µM (inactive)	> 100 µM (inactive)	44.4 µM (inactive)		90.2 µM (inactive)	> 100 µM (inactive)	> 100 µM (inactive)	> 100 µM (inactive)	35.4 µM (inactive)	27.8 µM (inactive)	> 100 µM (inactive)	
COc1cc(OC)nc(NC(=O)NS(=O)(=O)c2cccc3ncn(C)c(=O)c23)n1	> 100 µM (inactive)	41.3 µM (inactive)	> 100 µM (inactive)	> 100 µM (inactive)	> 100 µM (inactive)	> 100 µM (inactive)	> 100 µM (inactive)	> 100 µM (inactive)	> 100 µM (inactive)	> 100 µM (inactive)	> 100 µM (inactive)	> 100 µM (inactive)	> 100 µM (inactive)	> 100 µM (inactive)		> 100 µM (inactive)
COc1ccc(CC(COS(=O)(=O)c2ccc(C)cc2)NS(=O)(=O)c2ccc(C)cc2)cc1 (stereo not given)	10.2 µM (inactive)	8.91 µM (inactive)	7.01 µM (inactive)	8.34 µM (inactive)	13.7 µM (inactive)	17.5 µM (inactive)	16 µM (inactive)	15.2 µM (inactive)	12.3 µM (inactive)	12.2 µM (inactive)	6.56 µM (inactive)	6.98 µM (inactive)	20.7 µM (inactive)	14.6 µM (inactive)	5.71 µM (inactive)	
COc1ccc2c(c1)C(=O)CCc1cc(OC)c(OC)c(OC)c1-2	0.0374 µM (active)		< 0.01 µM (active)	0.0347 µM (active)	0.0384 µM (active)	0.0783 µM (active)	0.0542 µM (active)	0.0631 µM (active)	0.0863 µM (active)	0.0948 µM (active)	0.135 µM (active)	0.075 µM (active)	0.0582 µM (active)	0.045 µM (active)		0.0354 µM (active)
COc1ccc(-n2c(N)c(C#N)[nH]c2=O)cc1	> 10 µM (inactive)	> 10 µM (inactive)	> 10 µM (inactive)	> 10 µM (inactive)	2.77 µM (inactive)	3.5 µM (inactive)	> 10 µM (inactive)	> 10 µM (inactive)	> 10 µM (inactive)	> 10 µM (inactive)	> 10 µM (inactive)	> 10 µM (inactive)	> 10 µM (inactive)	> 10 µM (inactive)		> 10 µM (inactive)
CNC(=S)N/N=C(\C)c1cc(OC)c(OC)cc1O	> 100 µM (inactive)	> 100 µM (inactive)		> 100 µM (inactive)		> 100 µM (inactive)	> 100 µM (inactive)	> 100 µM (inactive)	> 100 µM (inactive)	> 100 µM (inactive)		> 100 µM (inactive)		> 100 µM (inactive)	> 100 µM (inactive)	> 100 µM (inactive)
CCC1CCN=C(Cn2cc(C)c(=O)[nH]c2=O)N1 (stereo not given)	> 100 µM (inactive)	> 100 µM (inactive)	> 100 µM (inactive)	> 100 µM (inactive)	> 100 µM (inactive)	> 100 µM (inactive)	> 100 µM (inactive)		> 100 µM (inactive)	> 100 µM (inactive)	> 100 µM (inactive)	> 100 µM (inactive)		> 100 µM (inactive)	> 100 µM (inactive)	
